In PMC9785441, “A Broad Spectrum Antiparasitic Activity of Organotin (IV) Derivatives and Its Untargeted Proteomic Profiling Using Leishmania donovani” (Pathogens, 2022):
“Also recorded” adds a separate entry of the source.

What was measured:
[1] = HEK293 cytotoxicity assay (resazurin); type: cell-based; conditions: HEK-293T cells, human embryonic kidney cells, max 4 µM, read-out: CC50 HEK923
Procedure: HEK-293T cells were cultured in DMEM (Gibco) supplemented with 10% heat inactivated FBS (Corning) and 1% penicillin-streptomycin (Gibco). Cells were maintained in vented T75 cell culture flasks (Thermo Scientific, Cat. 12-565-349) at 37 °C and 5% CO2, and were passaged every 72 h. […] Compounds were diluted with fresh DMEM (49 µL/well). HEK-293 cells were suspended at 4 × 10^5 cells/mL in DMEM and added to each well (50 µL/well) to give 2 × 10^4 cells/well. Assay plates were incubated at 37 °C and 5% CO2 for 48 h, followed by addition of 20 µL of 0.5 mM resazurin (Alfa Aesar, Cat. B21187) in PBS to each well. […] In each assay plate, cell viability was normalized relative to positive and negative controls. Assays were performed in biological and technical duplicates, and dose–response and CC50 data were generated with GraphPad Prism 5 using a sigmoidal four parameter logistic curve.

[2] = Cytotoxicity to B10R host cells (nuclei count in the amastigote assay); type: cell-based; conditions: mouse, B10R monocyte cells co-cultured with L. donovani parasites
Procedure: For the intracellular amastigote stage assay, L. donovani was incubated at a density of 1 × 10^6 parasites/mL for six days at 29 °C before infection to enrich the proportion of metacyclic promastigotes. B10R monocyte cell lines were cultured in RPMI supplemented with 10% FBS and 1%penicillin/streptomycin at 37 °C in 5% CO2. After 72 h, cells were counted with a hemocytometer and mixed with the six-day-old parasites. […] Plates were incubated at 37 °C and 5% CO2 for 72 h. Cultures were then fixed with 4% formaldehyde solution for 30 min and stained with 0.5 µg/mL DAPI (diamidino-2-phenylindole). Plates were then imaged using an ImageXpress Micro XLS automated high content imager (Molecular Devices, San Jose, CA, USA) using a 10× air objective. A custom image analysis module generated in ImageXpress was used to count the nuclei of host and parasite cells. EC50 values were obtained using the GraphPad Prism 9 Software with biological triplicates.

[3] = system: L. donovani-infected B10R cells; test: Untargeted proteomics of L. donovani-infected B10R cells treated and untreated with MS26Et3; type: cell-based, mouse / Leishmania donovani; conditions: L. donovani-infected B10R cells exposed to compound vs not exposed
Procedure: B10R culture cells (infected or uninfected with Leishmanaia donovani) were collected and washed twice in cold PBS. The cell pellets (~10^6 cells/pellet) were snap-frozen and stored at −80 °C. To extract the proteins, pellets were thawed, and the cells were resuspended in 200 µL buffer containing 6 M urea, 7% SDS, 50 mM TEAB, protease inhibitor cocktail (Roche, cat. no. A32963), phosphatase inhibitor (Roche, cat. no. A32957), with pH adjusted to 8.1 with phosphoric acid. The cells were then lysed using a sonicating probe 200 µL. The samples were reduced in 500 mM DTT at 47 °C for 30 min and alkylated in 500 mM IAA in the absence of light, at room temperature for 45 min, followed by quenching in 500 mM DTT for 5 min. The samples were then acidified with 12% phosphoric acid and mixed in a 7:1 ratio with binding buffer containing 90% methanol, 50 mM TEAB, pH 7.1, adjusted with phosphoric acid and loaded on to S-Trap columns (Protifi). […] The concentration of desalted peptides was determined and 50 µg aliquots of each sample were dried in a speed vacuum concentrator. […]
Basic pH reverse-phase LC and data acquisition through LC–MS2/MS3 were performed as previously described. […] Fractions were then analyzed using tandem mass spectrometry (MS2/MS3) on an Orbitrap Fusion mass spectrometer (ThermoFisher, Waltham, MA, USA) with an in-line EASY-nLC 1000 instrument (ThermoFisher, Waltham, MA, USA). […]

## COc1ccc(NC(=O)CCC(=O)O)cc1 [MS26, 4-(4-methoxyphenylamino)-4 oxobutanoic acid]
[1]
  CC50 at 48 h: > 4 µM
[2]
  CC50 at 72 h: 2.38 µM

## C[CH2][Sn]([CH2]C)([CH2]C)[O]C(=O)CCC(=O)Nc1ccc(OC)cc1 [MS26Et3]
[3]
  Rab7 expression / abundance: reduced expression; also recorded: differentially expressed; also recorded: decreased in abundance
